The results in this text go back to patent US20130303533A1, “AZOLOPYRIDINE AND AZOLOPYRIMIDINE COMPOUNDS AND METHODS OF USE THEREOF” (AMBIT BIOSCIENCES CORPORATION, priority 2010, published 2013).

The term IC50 denotes the concentration that gives 50% inhibition. In general, Kd refers to the equilibrium constant for the complex coming apart. A higher Kd goes with weaker binding.

The structures appear in SMILES notation. Bounds are passed on as bounds.

Test [1] deals with GM-CSFR/JAK2/STAT5 pathway. The test is described as follows: CSTF-1 cell-based reporter assay. The settings on record: Homo sapiens; csTF-1 cells, GM-CSF at 2 ng/mL, 4 hours, beta-lactamase reporter; read-out: Cell Assay: CS TF-1 reporter assay IC50. On the procedure: CSTF-1 Cell-Based Reporter Assay
CSTF-1 cells are derived from the human erythroleukemia cell line that is growth dependent on GM-CSF and has an intact GM-CSFR/JAK2/STAT5 pathway. The cell line contains stably integrated beta-lactamase reporter gene under the control of the […] (irf 1) response element recognized by the activated transcription factor STAT5. csTF-1 cells (Invitrogen K1219) were washed with assay media (97% OPTIMEM/0.5% dialyzed FBS/0.1 mM NEAA/1 mM Na pyr/P/S) and seeded in the same media at 5×10^5 cell/mL in T150 flask. After 16 hour incubation, cells were seeded at 2×10^5 cell/well in 50 μl volume, into Costar, clear bottom, 96-well assay plates. Serial dilutions of compounds were added to the plates with final DMSO concentration at 0.5% and GM-CSF at 2 ng/mL and the plates were then incubated at 30° C. and 5% CO2 for 4 hours. The plates were brought to room temperature before adding Substrate Mixture according to manufacturer's protocol (Invitrogen, Catalog #K1085). The assay plates containing the substrate mixture were incubated in the dark at room temperature for 2 hours. Blue and green fluorescence was measured with excitation at 409 nm and emission at 460 nm (for blue) and excitation at 409 nm and emission at 530 nm (for green) using Spectra Max Gemini EM.

For test [2], the target named is T1, JAK2 (Homo sapiens, UniProt O60674).
T1 construct: made in house; host or cells: T7 phage display or HEK-293 cells (alternatives)
T1 sequence (O60674 whole entry): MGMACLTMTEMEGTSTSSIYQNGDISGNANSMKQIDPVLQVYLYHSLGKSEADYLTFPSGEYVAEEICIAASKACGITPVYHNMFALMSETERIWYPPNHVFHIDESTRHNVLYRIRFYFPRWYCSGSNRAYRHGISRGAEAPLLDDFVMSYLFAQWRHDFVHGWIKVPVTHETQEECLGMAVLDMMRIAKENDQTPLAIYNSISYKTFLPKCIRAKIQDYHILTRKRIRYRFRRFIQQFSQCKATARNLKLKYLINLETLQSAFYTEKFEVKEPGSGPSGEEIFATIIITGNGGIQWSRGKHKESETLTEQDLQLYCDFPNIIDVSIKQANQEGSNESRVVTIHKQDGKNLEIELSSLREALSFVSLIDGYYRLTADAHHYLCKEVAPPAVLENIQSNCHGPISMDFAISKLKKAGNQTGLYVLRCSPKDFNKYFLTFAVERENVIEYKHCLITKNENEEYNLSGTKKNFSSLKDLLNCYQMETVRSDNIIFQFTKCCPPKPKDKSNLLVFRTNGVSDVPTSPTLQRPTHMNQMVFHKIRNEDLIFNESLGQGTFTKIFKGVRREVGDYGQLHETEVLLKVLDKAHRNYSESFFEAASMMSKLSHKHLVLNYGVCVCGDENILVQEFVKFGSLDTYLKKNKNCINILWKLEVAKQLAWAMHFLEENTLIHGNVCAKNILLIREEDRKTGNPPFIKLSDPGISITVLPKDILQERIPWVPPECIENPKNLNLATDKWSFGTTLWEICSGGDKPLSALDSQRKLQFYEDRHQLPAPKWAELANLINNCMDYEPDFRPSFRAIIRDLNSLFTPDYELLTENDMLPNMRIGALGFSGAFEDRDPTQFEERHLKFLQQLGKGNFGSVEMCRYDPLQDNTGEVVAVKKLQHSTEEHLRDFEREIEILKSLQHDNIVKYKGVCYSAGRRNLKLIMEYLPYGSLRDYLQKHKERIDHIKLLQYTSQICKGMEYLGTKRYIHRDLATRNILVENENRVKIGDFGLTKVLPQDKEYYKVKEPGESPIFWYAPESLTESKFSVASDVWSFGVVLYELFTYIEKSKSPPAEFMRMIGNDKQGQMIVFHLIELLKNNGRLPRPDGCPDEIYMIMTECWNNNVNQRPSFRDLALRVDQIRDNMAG
The test is described as follows: Competition binding assay to determine binding constants (Kd), JAK2. From the text: (§1) Competition Binding Assay to Determine Binding Constants (Kd) of the Compounds Against JAK Kinases
(§2) Competition binding assays used herein were developed, validated and performed as described in Fabian et al., Nature Biotechnology 2005, 23, 329-336. Kinases were produced as fusions to T7 phage (See, Fabian et al. or WO04/015142) or alternatively, the kinases were expressed in HEK-293 cells and subsequently tagged with DNA for PCR detection (See, WO08/005,310). For the binding assays, streptavidin-coated magnetic beads were treated with biotinylated affinity ligands for 30 min at rt to generate affinity resins. The liganded beads were blocked with excess biotin and washed with blocking buffer (SeaBlock (Pierce), 1% BSA, 0.05% Tween 20, 1 mM DTT) to remove unbound ligand and to reduce non-specific binding. Binding reactions were assembled by combining kinase, liganded affinity beads, and test compounds in 1× binding buffer (20% SeaBlock, 0.17×PBS, 0.05% Tween 20, 6 mM DTT). Test compounds were prepared as 100× stocks in DMSO and rapidly diluted into the aqueous environment. DMSO was added to control assays lacking a test compound. Primary screen interactions were performed in polypropylene 384-well plates in a final volume of 34 μL, while Kd determinations were performed in polystyrene 96-well plates in a final volume of 135 μL. The assay plates were incubated at room temperature with shaking for 1 hour, long enough for binding reactions to reach equilibrium, and the affinity beads were washed extensively with wash buffer (1×PBS, 0.05% Tween 20) to remove unbound protein. The beads were then resuspended in elution buffer (1×PBS, 0.05% Tween 20, 2 μM non-biotinylated affinity ligand) and incubated at room temperature with shaking for 30 min. The kinase concentration in the eluates was measured by quantitative PCR. Each kinase was tested individually against each compound. Kds were determined using eleven serial threefold dilutions. A selectivity score, which is a quantitative measure of selectivity of a compound against a panel of enzymes, may be calculated for a compound by dividing the number of enzymes for which a compound meets a set criteria, (for example, a binding constant of 100 nM or less), by the total number of enzymes tested.

Test [3] has as its target T2, JAK3 (Homo sapiens, UniProt P52333).
T2 construct: made in house; host or cells: T7 phage display or HEK-293 cells (alternatives)
T2 sequence (P52333 1-1124): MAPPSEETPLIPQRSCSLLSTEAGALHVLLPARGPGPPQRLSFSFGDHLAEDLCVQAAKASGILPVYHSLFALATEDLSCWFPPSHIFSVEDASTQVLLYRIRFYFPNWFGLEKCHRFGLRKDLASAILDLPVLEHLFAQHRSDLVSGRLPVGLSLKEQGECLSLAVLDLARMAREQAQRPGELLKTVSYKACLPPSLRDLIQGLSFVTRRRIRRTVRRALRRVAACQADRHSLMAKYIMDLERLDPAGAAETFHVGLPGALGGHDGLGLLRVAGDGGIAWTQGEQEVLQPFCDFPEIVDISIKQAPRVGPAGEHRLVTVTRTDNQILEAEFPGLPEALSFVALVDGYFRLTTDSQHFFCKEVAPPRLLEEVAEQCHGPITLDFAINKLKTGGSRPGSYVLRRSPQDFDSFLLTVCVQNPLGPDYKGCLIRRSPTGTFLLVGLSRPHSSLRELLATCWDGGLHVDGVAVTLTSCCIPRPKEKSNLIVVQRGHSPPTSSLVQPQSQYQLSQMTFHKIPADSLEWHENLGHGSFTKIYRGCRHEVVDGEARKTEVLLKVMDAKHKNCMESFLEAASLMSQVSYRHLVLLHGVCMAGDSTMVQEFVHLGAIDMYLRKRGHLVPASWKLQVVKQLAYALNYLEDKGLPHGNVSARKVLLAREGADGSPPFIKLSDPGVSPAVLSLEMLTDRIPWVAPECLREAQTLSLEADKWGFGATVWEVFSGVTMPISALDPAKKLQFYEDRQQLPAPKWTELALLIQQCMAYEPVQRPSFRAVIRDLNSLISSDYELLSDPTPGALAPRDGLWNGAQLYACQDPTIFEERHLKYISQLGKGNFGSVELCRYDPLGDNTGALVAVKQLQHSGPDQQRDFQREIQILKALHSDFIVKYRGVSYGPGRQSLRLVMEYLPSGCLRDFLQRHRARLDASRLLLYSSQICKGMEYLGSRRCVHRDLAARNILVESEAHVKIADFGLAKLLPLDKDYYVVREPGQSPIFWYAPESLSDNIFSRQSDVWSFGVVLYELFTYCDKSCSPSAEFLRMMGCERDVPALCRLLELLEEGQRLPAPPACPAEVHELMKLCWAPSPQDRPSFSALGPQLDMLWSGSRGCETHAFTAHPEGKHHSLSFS
In words: Competition binding assay to determine binding constants (Kd), JAK3.
Text: as §1, §2

For test [4], the target named is T3, TYK2 (Homo sapiens, UniProt P29597).
T3 construct: made in house; host or cells: T7 phage display or HEK-293 cells (alternatives)
T3 sequence (P29597 whole entry): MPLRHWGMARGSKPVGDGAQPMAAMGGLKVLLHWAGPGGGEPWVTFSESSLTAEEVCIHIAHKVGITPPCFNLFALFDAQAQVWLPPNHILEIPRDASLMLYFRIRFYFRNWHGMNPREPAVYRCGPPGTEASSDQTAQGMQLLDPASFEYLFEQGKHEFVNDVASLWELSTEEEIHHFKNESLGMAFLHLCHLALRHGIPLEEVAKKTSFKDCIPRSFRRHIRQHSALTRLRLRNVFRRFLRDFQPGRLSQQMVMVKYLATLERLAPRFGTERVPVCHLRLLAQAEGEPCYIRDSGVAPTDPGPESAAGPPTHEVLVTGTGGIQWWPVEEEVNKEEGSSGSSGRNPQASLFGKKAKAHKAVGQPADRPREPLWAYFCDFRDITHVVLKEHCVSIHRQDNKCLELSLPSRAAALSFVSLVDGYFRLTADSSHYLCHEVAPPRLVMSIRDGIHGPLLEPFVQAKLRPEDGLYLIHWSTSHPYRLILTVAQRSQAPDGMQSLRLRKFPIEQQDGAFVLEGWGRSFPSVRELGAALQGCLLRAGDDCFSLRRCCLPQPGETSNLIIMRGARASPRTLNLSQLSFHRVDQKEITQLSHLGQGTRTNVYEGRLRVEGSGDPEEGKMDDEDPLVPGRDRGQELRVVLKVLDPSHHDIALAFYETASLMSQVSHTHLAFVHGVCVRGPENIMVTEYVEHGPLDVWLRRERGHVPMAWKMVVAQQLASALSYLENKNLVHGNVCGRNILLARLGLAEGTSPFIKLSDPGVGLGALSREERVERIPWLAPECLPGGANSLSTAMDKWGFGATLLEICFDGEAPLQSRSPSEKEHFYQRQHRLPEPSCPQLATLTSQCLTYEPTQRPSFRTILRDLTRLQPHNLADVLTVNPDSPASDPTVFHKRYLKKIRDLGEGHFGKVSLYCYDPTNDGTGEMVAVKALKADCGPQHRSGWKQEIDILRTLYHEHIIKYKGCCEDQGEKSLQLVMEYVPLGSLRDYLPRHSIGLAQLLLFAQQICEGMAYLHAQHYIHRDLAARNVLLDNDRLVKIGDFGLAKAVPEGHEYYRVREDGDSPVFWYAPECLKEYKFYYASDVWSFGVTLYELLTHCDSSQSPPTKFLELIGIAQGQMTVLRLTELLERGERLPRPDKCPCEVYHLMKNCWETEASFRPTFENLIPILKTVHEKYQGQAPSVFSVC
In words: Competition binding assay to determine binding constants (Kd), TYK2.
Text: as §1, §2

Take `Cc1cc(Nc2nc(S(=O)(=O)c3ccc(F)cc3)nc3c2ccn3C(C)C)n[nH]1` [Example 10, 2-(4-fluorophenylsulfonyl)-7-isopropyl-N-(5-methyl-1H-pyrazol-3-yl)-7H-pyrrolo[2,3-d]pyrimidin-4-amine]: the IC50 in test [1] was not above 100 nM. The results for the dissociation constant (Kd) in test [2], in test [3] and in test [4] were not above 1 nM, not above 10 nM and not above 10 nM, respectively.

With `COCCn1ccc2c(Nc3cc(C)[nH]n3)nc(S(=O)(=O)c3ccc(F)cc3)nc21` [Example 11, 2-(4-fluorophenylsulfonyl)-7-(2-methoxyethyl)-N-(5-methyl-1H-pyrazol-3-yl)-7H-pyrrolo[2,3-d]pyrimidin-4-amine], the IC50 in test [1] is not above 100 nM. Moreover, the equilibrium dissociation constant (Kd) was not above 1 nM in test [2], not above 10 nM in test [3] and not above 10 nM in test [4].

For the compound `COCCn1ccc2c(Nc3cc[nH]n3)nc(S(=O)(=O)c3ccc(F)cc3)nc21` [Example 12, 2-(4-fluorophenylsulfonyl)-7-(2-methoxyethyl)-N-(1H-pyrazol-3-yl)-7H-pyrrolo[2,3-d]pyrimidin-4-amine], the IC50 in test [1] is not above 100 nM. The Kd in test [2] was not above 1 nM; in test [3], not above 10 nM; in test [4], not above 10 nM.

As to `Cc1cc(Nc2nc(S(=O)(=O)c3ccc(F)cc3)nc3c2ccn3CCO)n[nH]1` [Example 13, 2-(2-(4-fluorophenylsulfonyl)-4-(5-methyl-1H-pyrazol-3-ylamino)-7H-pyrrolo[2,3-d]pyrimidin-7-yl)ethanol], in test [1], the half-maximal inhibitory concentration (IC50) is not above 100 nM. In addition, the dissociation constant (Kd) was not above 1 nM in test [2], not above 10 nM in test [3] and not above 10 nM in test [4].

Turning to `CCn1ccc2c(Nc3cc(OC)[nH]n3)nc(S(=O)(=O)c3ccc(F)cc3)nc21` [Example 14, 7-ethyl-2-(4-fluorophenylsulfonyl)-N-(5-methoxy-1H-pyrazol-3-yl)-7H-pyrrolo[2,3-d]pyrimidin-4-amine], the half-inhibitory concentration (IC50) in test [1] is not above 100 nM. Further, the Kd in test [2] is not above 1 nM; in test [3], not above 10 nM; in test [4], not above 10 nM.

On to `Cc1cc(Nc2nc(S(=O)(=O)c3ccc(F)cc3)nc3c2ccn3CC(=O)N(C)C)n[nH]1` [Example 15], for which the 50% inhibitory concentration (IC50) in test [1] lay in the range of 100 to 500 nM. For the same compound, the Kd in test [2] was not above 1 nM; in test [3], not above 10 nM; in test [4], not above 10 nM.

Take `CN(C)C(=O)Cn1ccc2c(Nc3cc[nH]n3)nc(S(=O)(=O)c3ccc(F)cc3)nc21` [Example 16, 2-(4-(1H-pyrazol-3-ylamino)-2-(4-fluorophenylsulfonyl)-7H-pyrrolo[2,3-d]pyrimidin-7-yl)-N,N-dimethylacetamide]: the half-inhibitory concentration (IC50) in test [1] is 100 to 500 nM. The results for the equilibrium dissociation constant (Kd) in test [2], in test [3] and in test [4] were not above 1 nM, not above 10 nM and not above 10 nM, respectively.

Take `Cc1cc(Nc2nc(S(=O)(=O)c3ccc(F)cc3)nc3c2ccn3CCS(C)(=O)=O)n[nH]1` [Example 17, 2-(4-fluorophenylsulfonyl)-N-(5-methyl-1H-pyrazol-3-yl)-7-(2-(methylsulfonyl)ethyl)-7H-pyrrolo[2,3-d]pyrimidin-4-amine]: the half-maximal inhibitory concentration (IC50) in test [1] was 100 to 500 nM. In addition, the dissociation constant (Kd) in test [2] is not above 1 nM; in test [3] it was not above 10 nM; in test [4], not above 10 nM.

`CS(=O)(=O)CCn1ccc2c(Nc3cc[nH]n3)nc(S(=O)(=O)c3ccc(F)cc3)nc21` [Example 18, 2-(4-fluorophenylsulfonyl)-7-(2-(methylsulfonyl)ethyl)-N-(1H-pyrazol-3-yl)-7H-pyrrolo[2,3-d]pyrimidin-4-amine]: the IC50 in test [1] was 100 to 500 nM. In addition, the Kd in test [2] was not above 1 nM; in test [3] it was not above 10 nM; in test [4], not above 10 nM.

In the case of `Cc1cc(Nc2nc(S(=O)(=O)c3ccc(F)cc3)nc3c2ccn3CCN2CCOCC2)n[nH]1` [Example 19, 2-(4-fluorophenylsulfonyl)-N-(5-methyl-1H-pyrazol-3-yl)-7-(2-morpholinoethyl)-7H-pyrrolo[2,3-d]pyrimidin-4-amine], in test [1], the concentration for half-maximal inhibition (IC50) was not above 100 nM. Moreover, the figures for the Kd in test [2], in test [3] and in test [4] were 1 to 10 nM, not above 10 nM and not above 10 nM, respectively.

For `Cc1cc(Nc2nc(C(F)(F)c3ccc(F)cc3)nc3nn(C)cc23)n[nH]1` [Example 20, 6-(difluoro(4-fluorophenyl)methyl)-2-methyl-N-(5-methyl-1H-pyrazol-3-yl)-2H-pyrazolo[3,4-d]pyrimidin-4-amine], the IC50 in test [1] is 100 to 500 nM. In addition, the results for the Kd in test [2], in test [3] and in test [4] were not above 1 nM, 10 to 100 nM and not above 10 nM, respectively.

For `Cn1cc2c(Nc3cc[nH]n3)nc(C(F)(F)c3ccc(F)cc3)nc2n1` [Example 21, 6-(difluoro(4-fluorophenyl)methyl)-2-methyl-N-(1H-pyrazol-3-yl)-2H-pyrazolo[3,4-d]pyrimidin-4-amine], the IC50 in test [1] is 100 to 500 nM. For the same compound, the dissociation constant (Kd) in test [2] is not above 1 nM; in test [3] it was 10 to 100 nM; in test [4] it was not above 10 nM.

On to `Cc1cc(Nc2nc(S(=O)(=O)c3ccc(F)cc3)nc3c2cnn3CCO)n[nH]1` [Example 23, 2-(6-(4-fluorophenylsulfonyl)-4-(5-methyl-1H-pyrazol-3-ylamino)-1H-pyrazolo[3,4-d]pyrimidin-1-yl)ethanol], for which, in test [1], the IC50 was 100 to 500 nM. For the same compound, the dissociation constant Kd is not above 1 nM in test [2], 10 to 100 nM in test [3] and not above 10 nM in test [4].

`CCn1ncc2c(Nc3cc(C)[nH]n3)nc(S(=O)(=O)c3ccc(F)cc3)nc21` [Example 24, 1-ethyl-6-(4-fluorophenylsulfonyl)-N-(5-methyl-1H-pyrazol-3-yl)-1H-pyrazolo[3,4-d]pyrimidin-4-amine]: in test [1], the IC50 was not above 100 nM. In addition, the dissociation constant Kd in test [2] was not above 1 nM; in test [3] it was 10 to 100 nM; in test [4], not above 10 nM.
